The Ki is a dissociation constant, usually derived from enzyme kinetics or from competition with a known ligand. As a reminder, the EC50 is the concentration at which the effect is half-maximal.

Assay [1] deals with T1, full-length SARS-CoV-2 3CL protease (Severe acute respiratory syndrome coronavirus 2, UniProt P0DTD1).
T1 construct: measures the activity of full-length SARS-CoV-2 3CL protease
The assay is described as follows: SARS-CoV-2 Coronavirus 3C Protease FRET Assay (Dabcyl-KTSAVLQ-SGFRKME-Edans substrate). In kind it is biochemical. The conditions noted are these: 15 nM enzyme, 25 μM peptide substrate, 60 minutes at 23° C.; Morrison equation fit; read-out: Geometric Mean Ki.

Assay [2] relates to SARS-CoV-2 (USA_WA1/2020) in VeroE6 cells enriched for hACE2 expression. The assay can be described thus: microbe, parasite or virus in culture. It counts as cell-based. The conditions noted are these: Severe acute respiratory syndrome coronavirus 2, Vero C1008, 72 h, read-out: Geometric Mean EC50.

For the molecule `COc1cccc2[nH]c(C(=O)N[C@@H](CC(C)C)C(=O)N[C@@H](C[C@@H]3CCNC3=O)C(=O)COC(=O)c3ccccc3CN(C)C)cc12` [Example 53, (3S)-3-({N-[(4-methoxy-1H-indol-2-yl)carbonyl]-L-leucyl}amino)-2-oxo-4-[(3S)-2-oxopyrrolidin-3-yl]butyl 2-[(dimethylamino)methyl]benzoate], in assay [1], the Ki stood at 14 nM. Further, the EC50 in assay [2] turned out to be 538 nM.

For the molecule `COc1cccc2[nH]c(C(=O)N[C@@H](CC(C)C)C(=O)N[C@@H](C[C@@H]3CCNC3=O)C(=O)COC(=O)C3(C)CCC3)cc12` [Example 14, (3S)-3-({N-[(4-methoxy-1H-indol-2-yl)carbonyl]-L-leucyl}amino)-2-oxo-4-[(3S)-2-oxopyrrolidin-3-yl]butyl 1-methylcyclobutanecarboxylate], in assay [1], the Ki turned out to be 348 nM. In addition, in assay [2], the EC50 is 505 nM.

Turning to `COc1cccc2[nH]c(C(=O)N[C@@H](CC(C)C)C(=O)N[C@@H](C[C@@H]3CCNC3=O)C(=O)COC(=O)c3c(C)cc(C#N)cc3C)cc12` [Example 65, (3S)-3-({N-[(4-methoxy-1H-indol-2-yl)carbonyl]-L-leucyl}amino)-2-oxo-4-[(3S)-2-oxopyrrolidin-3-yl]butyl 4-cyano-2,6-dimethylbenzoate], the Ki in assay [1] was determined as 7.67 nM. Also, the EC50 in assay [2] turned out to be 51.3 nM.

In the case of `COc1cccc2[nH]c(C(=O)N[C@@H](CC(C)C)C(=O)N[C@@H](C[C@@H]3CCNC3=O)C(=O)COC(=O)c3c(C)nc(C)nc3C)cc12` [Example 70, (3S)-3-({N-[(4-methoxy-1H-indol-2-yl)carbonyl]-L-leucyl}amino)-2-oxo-4-[(3S)-2-oxopyrrolidin-3-yl]butyl 2,4,6-trimethylpyrimidine-5-carboxylate], the Ki in assay [1] worked out at 5.89 nM. Besides, the EC50 in assay [2] is 4800 nM.

As to `COc1cccc2[nH]c(C(=O)N[C@@H](CC(C)C)C(=O)N[C@@H](C[C@@H]3CCNC3=O)C(=O)COC(=O)C3CCCCC3)cc12` [Example 12, (3S)-3-({N-[(4-methoxy-1H-indol-2-yl)carbonyl]-L-leucyl}amino)-2-oxo-4-[(3S)-2-oxopyrrolidin-3-yl]butyl cyclohexanecarboxylate], in assay [1], the Ki amounted to 73.8 nM. The EC50 in assay [2] was 109 nM.

As for `COc1cccc2[nH]c(C(=O)N[C@@H](CC(C)C)C(=O)N[C@@H](C[C@@H]3CCNC3=O)C(=O)COC(=O)c3c(C)ncnc3C)cc12` [Example 71, (3S)-3-({N-[(4-methoxy-1H-indol-2-yl)carbonyl]-L-leucyl}amino)-2-oxo-4-[(3S)-2-oxopyrrolidin-3-yl]butyl 4,6-di methylpyrimidine-5-carboxylate], the inhibitory constant (Ki) in assay [1] came to 0.928 nM. Also, the EC50 in assay [2] was 315 nM.

With `COc1cccc2[nH]c(C(=O)N[C@@H](CC(C)C)C(=O)N[C@@H](C[C@@H]3CCNC3=O)C(=O)COC(=O)C(C)C)cc12` [Example 10, (3S)-3-({N-[(4-methoxy-1H-indol-2-yl)carbonyl]-L-leucyl}amino)-2-oxo-4-[(3S)-2-oxopyrrolidin-3-yl]butyl 2-methylpropanoate], in assay [1], the Ki was 63.7 nM. Besides, the EC50 in assay [2] stood at 205 nM.

For the molecule `COc1cccc2[nH]c(C(=O)N[C@@H](CC(C)C)C(=O)N[C@@H](C[C@@H]3CCNC3=O)C(=O)COC(=O)c3c(C)cccc3Cl)cc12` [Example 67, (3S)-3-({N-[(4-methoxy-1H-indol-2-yl)carbonyl]-L-leucyl}amino)-2-oxo-4-[(3S)-2-oxopyrrolidin-3-yl]butyl 2-chloro-6-methyl benzoate], the inhibitory constant (Ki) in assay [1] amounted to 8.82 nM. In assay [2], the 50% effective concentration (EC50) worked out at 163 nM.
